Test results as given in patent US20220169660A1, “CYCLIC AMINO-PYRAZINECARBOXAMIDE COMPOUNDS AND USES THEREOF” (SILVERBACK THERAPEUTICS, INC., priority 2019, published 2022).

How the values were obtained:
[1] = system: HEK293 SMAD2p luciferase reporter cells transfected to stably express full length human LRRC15; experiment: Cell reporter assay of anti-LRRC15 antibody drug conjugates (SMAD2p luciferase); assay type: cell-based; conditions: linker-payload conjugated to anti-LRRC15 antibody; human TGFβ1 1.6 ng/ml; absolute EC50
Description: The linker payloads in Table 8 were covalently attached to an anti-LRRC15 antibody. The LRRC15 antibody is the murine M25 antibody or a humanized variant thereof (see PCT Application Publication No. WO 2017/095805, incorporated herein by reference in its entirety). Conjugation to the linker-payload is via the interchain disulfides. The antibodies have either a wild-type Fc domain or a null Fc domain. The Fcnull mutations for human IgG1 are L234A, L236A, G237A, and K322A and the Fcnull mutations for murine IgG2a are L234A, L236A, G237A, K322A, and P329G; numbering by EU index.
The resultant antibody drug conjugates were tested via a cell reporter assay. HEK293 SMAD2p luciferase reporter cells transfected to stably express full length human LRRC15 were seeded in 96 well plates at 40,000 cells/well in an assay media of MEM +0.5% FBS, 1% NEAA, 1% NaPyr & 1% Pen/Strep. Conjugates and controls were added to wells in a dose titration ranging from 500 nM to 0.03 nM. After 24 hours of culture at 37° C. in a 5% CO2 environment human TGFβ1 was added (PeproTech Inc.) to a final concentration of 1.6 ng/ml followed by an additional 18 hour of culture. Luciferase Steady Glo reagent (Promega Corporation) was added as recommended by manufacturer. After incubating 10 minutes with shaking, SMAD2p activity was determined by measuring luminescence with an Envision Plate Reader (Perkin-Elmer Inc.) and an absolute EC50 was determined using Prism Software v8.01 (GraphPad Inc.).

[2] = system: TGFβ/SMAD Singling Pathway SBE reporter cell line; experiment: TGFβ reporter assay (in vitro small molecule screening); assay type: cell-based; conditions: SBE luciferase reporter cells, TGFβ stimulation, 18 h, luminescence
Procedure: TGFβ/SMAD Singling Pathway SBE reporter cell line was obtained from BPS Bioscience. Cells were passed, expanded, and stored in liquid nitrogen as per the supplier's instructions with the exception that growth media is changed to DMEM-C with Geneticin (DMEM supplemented with 10% fetal bovine serum, 1×NEAA, 1 mM Pyruvate, 2 mM glutamine, 50 μg/mL penicillin, 50 U/mL streptomycin and 400 μg/mL of Geneticin). The assay media was MEM supplemented with […] fetal bovine serum, 1×NEAA, 1 mM Pyruvate, 50 μg/mL penicillin and 50 U/mL streptomycin.
Test samples (at desired concentrations diluted in assay media) were added to a 96-well assay plate, 20 μL per well. Reporter cells were harvested from the tissue culture flasks by incubation in small quantity of PBS at 37° C. for two minutes after the media in the flask is removed and cells rinsed with PBS. Cells were counted and diluted in the assay media at approximately 0.5×10^6 cells/mL and then 80 μL/well of cells were added to the assay plate containing the 20 μL/well of test samples (or media only), and incubated for approximately 5-6 hours at 37° C. in a 5% CO2 humidified incubator. After that time, 15 μL of TGFβ diluted to 12 ng/mL in the assay media was added to the plate. Controls included TGFβ titration (from 50 to 0 ng/mL) without inhibitors, and media only (without cells, inhibitor or TGFβ). Plates were incubated at 37° C. in a 5% CO2 humidified incubator for 18 h. Luciferase substrate solution is subsequently added at 100 μL per well, incubated in the dark at room temperature for 15 min, and luminescence is measured using a luminometer. EC50 values and curve fits were obtained using Prism (GraphPad Software).

[3] = target: T1, TGFBR2 (Homo sapiens, UniProt P37173); experiment: TGFBR2 RBC enzyme assay (Reaction Biology Corp.); assay type: biochemical
T1 construct: purchased Reaction Biology Corp
T1 sequence (P37173 23-567): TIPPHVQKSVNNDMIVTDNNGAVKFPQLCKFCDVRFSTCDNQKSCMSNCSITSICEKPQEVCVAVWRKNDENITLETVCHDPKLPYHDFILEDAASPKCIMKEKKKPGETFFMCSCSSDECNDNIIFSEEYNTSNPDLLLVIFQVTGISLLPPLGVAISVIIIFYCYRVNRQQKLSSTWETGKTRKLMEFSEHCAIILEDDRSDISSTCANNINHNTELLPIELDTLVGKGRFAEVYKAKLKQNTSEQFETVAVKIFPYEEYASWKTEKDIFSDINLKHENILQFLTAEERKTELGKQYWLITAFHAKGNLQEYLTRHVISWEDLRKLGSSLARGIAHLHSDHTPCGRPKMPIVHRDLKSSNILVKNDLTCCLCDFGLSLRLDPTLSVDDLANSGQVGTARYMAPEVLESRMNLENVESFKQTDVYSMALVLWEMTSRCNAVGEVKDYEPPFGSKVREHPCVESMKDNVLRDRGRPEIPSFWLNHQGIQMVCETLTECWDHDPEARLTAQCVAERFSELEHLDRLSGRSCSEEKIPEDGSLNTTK
Procedure: Compounds of the disclosure were assayed by Reaction Biology Corp. using the TGFBR2 RBC enzyme assay.

EC50 [2] | EC50 [3] | Compound | EC50 [1]
– | – | CC(C)[C@H](NC(=O)CCOCCOCCOCCOCCN1C(=O)C=CC1=O)C(=O)N[C@@H](CCCNC(N)=O)C(=O)Nc1ccc(COC(=O)NCCCOc2ccc3cc2CCCCN(C)c2ccncc2NC(=O)c2nc-3cnc2N)cc1 [Compound B-63] | 1 to 1000 nM
– | – | CC(C)[C@H](NC(=O)CCOCCOCCOCCOCCN1C(=O)C=CC1=O)C(=O)N[C@@H](CCCNC(N)=O)C(=O)Nc1ccc(COC(=O)NCCCOc2ccc3c(c2)-c2cnc(N)c(n2)C(=O)Nc2cnccc2N(C)CCO3)cc1 [Compound B-64] | 1 to 1000 nM
– | – | CC(C)[C@H](NC(=O)CCOCCOCCOCCOCCN1C(=O)C=CC1=O)C(=O)N[C@@H](CCCNC(N)=O)C(=O)Nc1ccc(COC(=O)NCCCOc2ccc3cc2OCCCN(C)c2ccncc2NC(=O)c2nc-3cnc2N)cc1 [Compound B-61] | 1 to 1000 nM
– | – | CC(C)[C@H](NC(=O)CCOCCOCCOCCOCCN1C(=O)C=CC1=O)C(=O)N[C@@H](CCCNC(N)=O)C(=O)Nc1ccc(COC(=O)NCCCCc2ccc3cc2CCCCN(C)c2ccncc2NC(=O)c2nc-3cnc2N)cc1 [Compound B-62] | 1 to 1000 nM
– | – | CC(C)[C@H](NC(=O)CCOCCOCCOCCOCCN1C(=O)C=CC1=O)C(=O)N[C@@H](CCCNC(N)=O)C(=O)Nc1ccc(COC(=O)NCCCOc2ccc3c(c2)OCCN(C)c2ccncc2NC(=O)c2nc-3cnc2N)cc1 [Compound B-65] | 1 to 1000 nM
– | – | 4-((S)-2-((S)-2-(6-(2,5-dioxo-2,5-dihydro-1H-pyrrol-1-yl)hexanamido)-3-methylbutanamido)-5-ureidopentanamido)benzyl (3-((2^5-amino-6-methyl-3-oxo-10-oxa-4,6-diaza-2(2,6)-pyrazina-5(3,4)-pyridina-1(1,3)-benzenacyclodecaphane-15-yl)oxy)propyl)carbamate [Compound B-16] | 1 to 1000 nM
1000 to 5000 nM | > 1000 nM | CN1C[C@@H](CN)Oc2ccccc2-c2cnc(N)c(n2)C(=O)Nc2cnccc21 [Compound 60, (R)-2^5-amino-8-(aminomethyl)-6-methyl-9-oxa-4,6-diaza-2(2,6)-pyrazina-5(3,4)-pyridina-1(1,2)-benzenacyclononaphan-3-one] | –
1 to 1000 nM | 1 to 100 nM | CN1CCCOc2cc(OCCCN)cc(c2)-c2cnc(N)c(n2)C(=O)Nc2cnccc21 [Compound 16, 2^5-amino-1^5-(3-aminopropoxy)-6-methyl-10-oxa-4,6-diaza-2(2,6)-pyrazina-5(3,4)-pyridina-1(1,3)-benzenacyclodecaphan-3-one] | –
